{"source": "patent US10307411B2", "about": "“Use of cotinine in treating or preventing neurogenesis deficits and enhancing neurogenesis” (Department of Veterans Affairs, priority 2014, dated 2019)", "key": {"[1]": {"test": "Weight gain in rats subjected to CMF chemotherapy", "format": "in vivo, Wistar female rats", "procedure": "Wistar female rats (2-4 months of age, 200-300 g) (n=10/group) were obtained from Harlan laboratories. Rats were housed in pairs, kept at 12 h light/12 h dark cycle and maintained in an air-conditioned room at a temperature of 21±1° C. and relative humidity of 60±10%. Food and water were available ad libitum. All rats were acclimated to the Veterinary Medical Unit for 1 week and handled daily. Weight was recorded every 2 days to assess for dehydration induced by the chemotherapy regime. All procedures were approved by the Institutional Animal Care and Use (IACUC) committee of the Bay Pines Veterans Affairs (VA) Healthcare System, in accordance with VA and The Guide for the Care and Use of Laboratory Animals. Following the habituation period, rats were divided into 4 groups (n=6-12/condition) and treated with warm saline (vehicle) or a combination of cyclophosphamide (40 mg/kg), methotrexate (37.5 mg/kg) and 5-fluorouracil (75 mg/kg) (CMF) via intraperitoneal (i.p. or IP) injection once a week for 2 weeks, the shortest time inducing cognitive impairment in the rats. […] Differences among the means were analyzed using one-way analysis of variance (ANOVA). […]"}, "[2]": {"test": "Novel location recognition test (NOL), spatial recognition memory in rats subjected to CMF chemotherapy", "format": "in vivo, Wistar female rats", "conditions": "CMF-treated rats, cotinine 5 mg/kg oral", "procedure": "Wistar female rats (2-4 months of age, 200-300 g) (n=10/group) were obtained from Harlan laboratories. Rats were housed in pairs, kept at 12 h light/12 h dark cycle and maintained in an air-conditioned room at a temperature of 21±1° C. and relative humidity of 60±10%. Food and water were available ad libitum. All rats were acclimated to the Veterinary Medical Unit for 1 week and handled daily. Weight was recorded every 2 days to assess for dehydration induced by the chemotherapy regime. All procedures were approved by the Institutional Animal Care and Use (IACUC) committee of the Bay Pines Veterans Affairs (VA) Healthcare System, in accordance with VA and The Guide for the Care and Use of Laboratory Animals. […]\nThis task evaluates spatial recognition memory and is based on the preferential exploration of a displaced object by rodents able to detect a novel placement of an object after remembering each object's original positions (Ennaceur A, Delacour J (1988) A new one-trial test for neurobiological studies of memory in rats. 1: Behavioral data. Behav Brain Res 31(1):47-59). […] The discrimination index (DI), which is a measure of spatial recognition memory, was calculated as follows: time spent exploring the object in the new location/total time spent exploring both objects.\nDifferences among the means were analyzed using one-way analysis of variance (ANOVA). […]"}, "aromatase": {"biological_target": "T1, aromatase (Homo sapiens, UniProt P11511)", "T1 sequence (P11511 1-503)": "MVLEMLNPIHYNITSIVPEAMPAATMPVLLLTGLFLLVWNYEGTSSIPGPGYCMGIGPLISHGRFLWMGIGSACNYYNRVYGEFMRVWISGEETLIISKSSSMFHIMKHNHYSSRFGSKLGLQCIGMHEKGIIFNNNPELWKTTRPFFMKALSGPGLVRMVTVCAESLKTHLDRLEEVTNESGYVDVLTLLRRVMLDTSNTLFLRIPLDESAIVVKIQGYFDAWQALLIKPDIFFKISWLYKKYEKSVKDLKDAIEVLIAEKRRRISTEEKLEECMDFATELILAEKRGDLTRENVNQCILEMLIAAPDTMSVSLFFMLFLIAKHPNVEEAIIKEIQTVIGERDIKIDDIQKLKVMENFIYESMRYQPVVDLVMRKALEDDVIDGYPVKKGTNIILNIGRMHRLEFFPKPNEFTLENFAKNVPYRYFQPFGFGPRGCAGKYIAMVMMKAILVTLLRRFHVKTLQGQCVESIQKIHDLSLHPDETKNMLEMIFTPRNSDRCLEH", "conditions": "in vitro; cited from earlier work"}}}
{"smiles": "CN1C(=O)CC[C@H]1c1cccnc1", "note": "[cotinine, (5S)-1-methyl-5-(3-pyridyl) pyrrolidin-2-one]", "values": [{"measurement": "recovery of weight gain after chemotherapy", "setting": "[1]; CMF-treated rats, cotinine 5 mg/kg oral daily from 3 days after chemotherapy, vs chemotherapy-treated control rats p<0.05", "result": "enhanced the recovery of weight gain"}, {"measurement": "weight levels reached compared with vehicle-treated rats", "setting": "[1]; cotinine 5 mg/kg oral daily, 30 days of experiments", "result": "indistinguishable from the vehicle-treated rats"}, {"measurement": "ability to discriminate between old and new location of objects (discrimination index)", "setting": "[2]", "result": "restored the ability"}, {"measurement": "location discrimination level compared with control rats", "setting": "[2]; p>0.05", "result": "indistinguishable from control rats"}, {"measurement": "inhibition of aromatase", "setting": "aromatase", "result": "inhibiting"}]}
